# Laboratory results published in patent US10584127B2, “3,3-difluoropiperidine carbamate heterocyclic compounds as NR2B NMDA receptor antagonists” (Rugen Holdings (Cayman) Limited, priority 2015, dated 2020).
# Assays:
# [1] = system: electroconvulsive threshold (tonic convulsions); test: Electroconvulsive Threshold Test (ECT); assay type: in vivo, rats; settings: rats, 3, 10 and 30 mpk p.o., mesylate salt
# Procedure: Rats were administered ECS (rectangular current: 0.6 ms pulse width, 1.5 s duration, 200 Hz) via earclip electrodes connected to a constant current shock generator (Ugo Basile: type 7801). Test compounds were administered by oral gavage (p.o.) 1 hour before the test at a dose volume of 5 mL/kg.
# Treatment groups of 20 rats were exposed to ECS as follows: The first animal was exposed to 30 mA of ECS. […] (increases of 5 mA) until the first tonic convulsion was observed. Once the first tonic convulsion was observed, the intensity of ECS was decreased by 2 mA for the next animal and then decreased or increased by 2 mA from animal to animal depending on whether the previous animal convulsed or not. If the first animal did convulse (tonic convulsions) within 5 seconds, animal n°2 is exposed to 25 mA, etc . . . (decreases of 5 mA) until the absence of tonic convulsions was observed. At this point, the intensity of ECS was increased by 2 mA for the next animal and then decreased or increased by 2 mA from animal to animal depending on whether the previous animal convulsed or not. The minimum current intensity applied is 5 mA and the maximum 95 mA. The first 5 animals serve to approach threshold current and were not included in the analysis. The results are presented as the mean current intensity administered to the final 15 animals of a group. The test was performed blind. A positive percent change indicates an anticonvulsant effect. A negative percent change indicates a proconvulsant effect. The test substance was evaluated at 4 doses, typically using 0.5% dimethylsulfoxide, 4% hydroxypropyl-b-cyclodextrin water as a vehicle, and administered p.o. 60 minutes before ECS, and compared with a vehicle control group. Diazepam (16 mg/kg p.o.), administered under the same experimental conditions, was used as reference substance. The experiment included 6 groups. Data with the test substance was analyzed by comparing treated groups with vehicle control using one-way ANOVA followed by Dunnett's t tests.
# [2] = system: KCl-induced cortical spreading depression; test: Cortical spreading depression (CSD), aura phase of migraine model; assay type: in vivo; settings: rats, mesylate salt
# Procedure: The cortical spreading depression model is utilized to investigate whether treatment with compounds of the present invention affect electrophysiological and hemodynamic events in a rat model of migraine.
# Rats were anesthetized with 5% isoflurane (in 70% N2O and 30% O2; flow 300 ml/min) and placed in a stereotactic frame. […] The rectal temperature was maintained at 37.0±1.0° C. with a homeothermic blanket system. The skin was opened by a medial incision and retracted laterally. Three burr holes were drilled under saline cooling over the right hemisphere at the following coordinates (mm from bregma): (1) posterior 4.5, lateral, 2.0 (occipital cortex): KCl application site; (2) posterior 0.5, lateral 2.0 (parietal cortex): LDF recording site; (3) anterior 2, lateral 2 (frontal cortex): DC potential recording site. A laser-Doppler flow probe (Oxyflow, Oxford Optronics, UK) to monitor CBF and an invasive Ag/AgCl electrode for measuring direct current (DC) potential shifts were placed in the parietal and frontal cortex burr holes on the intact dura and in the cortex, respectively. The laser-Doppler flow probe was positioned in an area free of large pial and dural vessels to minimize a large-vessel contribution to the signal. For the DC-potential measurement, a reference electrode was fixed in the neck. Dura overlying the occipital cortex was gently removed and care was taken to avoid bleeding. After surgical preparation, the cortex was allowed to recover for 15 minutes under saline irrigation. A cotton ball (2 mm diameter) soaked with 1M KCl was placed on the pial surface and kept moist by placing 5 μl of KCl solution every 15 minutes. Test compound or vehicle was administered ten (10) minutes prior to CSD initiation. […] The number of KCl-induced CSDs was counted for 2 hours. The CBF and DC-potentials were monitored continuously starting from 5 minutes before KCl exposure.
# Test compound E1-1.2 was administered as a mesylate salt (mpk based on molecular weight of the mesylate salt).
# The data was collected in Windaq acquisition software (Dataq Instruments, USA) at 20 kHz. The raw data was analyzed in Clampfit program (Axon Instruments, USA). The signals were low pass filtered (cut off range 5-10000 Hz) that CSD episodes in DC and CBF could be confirmed. The following parameters were analyzed: i) the number, duration and amplitude of DC-potentials, and ii) the number and amplitude of CBF events.
# Doses were given as milligram per kilogram (mpk). […] Bars represent mean±Standard Error of Mean (SEM), and differences were considered to be statistically significant at the P<0.05 level (n=8, * different from vehicle group). Statistical analysis was performed using StatsDirect statistical software. Differences between groups were analyzed by using 1-way ANOVA and Dunnett's post hoc test.
# [3] = system: formalin-induced nociceptive behavior; test: Rat Formalin Model; assay type: in vivo; settings: rat, 10, 30 and 60 mpk i.p., mesylate salt
# Procedure: The rat formalin model is a tonic model of continuous pain resulting from formalin-induced spontaneous nociceptive behaviors. Intra-paw injection of formalin is a commonly used model to measure spontaneous nociceptive behaviors in rodents (Dubuisson, D. and Dennis, S. G. Pain 4:161, 1977). Subcutaneous plantar injection of formalin causes a bi-phasic nocifensive behavioral response in rodents. The early phase (phase-I) lasts for about 5-10 min following which an interphase occurs without any discernible nociceptive reactions after which the late phase (phase-II) nociceptive reaction ensues continuing from about 20-60 min following formalin injection. Formalin model is a model of tonic, persistent pain, and is widely used for rapid screening of novel analgesic compounds. […] In the present example, effects of test item were assessed in 0-5 minutes from the early phase (phase-I) and 20-35 minutes from the late phase (phase-II) of formalin-induced nociceptive behavior. […]
# For all groups, animals were acclimated to the observation chamber for 15 minutes immediately prior to formalin injection. All animals received an intraplantar subcutaneous injection of 50 μL of 5% formalin into the left hind paw and then placed immediately into an observation chamber and formalin-evoked spontaneous nociceptive behaviors in the rats were continuously recorded for 0-60 min using a commercial camcorder. […]
# cloned human NR1/NR2A = cloned human NR1/NR2A (Homo sapiens (Human), UniProt Q12879); test: NR2A antagonist activity, Fluo-4 calcium influx in HEK293 cells; assay type: cell-based; settings: glutamate 100 μM, glycine 50 μM
# cloned human NR1/NR2A, sequence (Q12879 23-1464, other chains not shown): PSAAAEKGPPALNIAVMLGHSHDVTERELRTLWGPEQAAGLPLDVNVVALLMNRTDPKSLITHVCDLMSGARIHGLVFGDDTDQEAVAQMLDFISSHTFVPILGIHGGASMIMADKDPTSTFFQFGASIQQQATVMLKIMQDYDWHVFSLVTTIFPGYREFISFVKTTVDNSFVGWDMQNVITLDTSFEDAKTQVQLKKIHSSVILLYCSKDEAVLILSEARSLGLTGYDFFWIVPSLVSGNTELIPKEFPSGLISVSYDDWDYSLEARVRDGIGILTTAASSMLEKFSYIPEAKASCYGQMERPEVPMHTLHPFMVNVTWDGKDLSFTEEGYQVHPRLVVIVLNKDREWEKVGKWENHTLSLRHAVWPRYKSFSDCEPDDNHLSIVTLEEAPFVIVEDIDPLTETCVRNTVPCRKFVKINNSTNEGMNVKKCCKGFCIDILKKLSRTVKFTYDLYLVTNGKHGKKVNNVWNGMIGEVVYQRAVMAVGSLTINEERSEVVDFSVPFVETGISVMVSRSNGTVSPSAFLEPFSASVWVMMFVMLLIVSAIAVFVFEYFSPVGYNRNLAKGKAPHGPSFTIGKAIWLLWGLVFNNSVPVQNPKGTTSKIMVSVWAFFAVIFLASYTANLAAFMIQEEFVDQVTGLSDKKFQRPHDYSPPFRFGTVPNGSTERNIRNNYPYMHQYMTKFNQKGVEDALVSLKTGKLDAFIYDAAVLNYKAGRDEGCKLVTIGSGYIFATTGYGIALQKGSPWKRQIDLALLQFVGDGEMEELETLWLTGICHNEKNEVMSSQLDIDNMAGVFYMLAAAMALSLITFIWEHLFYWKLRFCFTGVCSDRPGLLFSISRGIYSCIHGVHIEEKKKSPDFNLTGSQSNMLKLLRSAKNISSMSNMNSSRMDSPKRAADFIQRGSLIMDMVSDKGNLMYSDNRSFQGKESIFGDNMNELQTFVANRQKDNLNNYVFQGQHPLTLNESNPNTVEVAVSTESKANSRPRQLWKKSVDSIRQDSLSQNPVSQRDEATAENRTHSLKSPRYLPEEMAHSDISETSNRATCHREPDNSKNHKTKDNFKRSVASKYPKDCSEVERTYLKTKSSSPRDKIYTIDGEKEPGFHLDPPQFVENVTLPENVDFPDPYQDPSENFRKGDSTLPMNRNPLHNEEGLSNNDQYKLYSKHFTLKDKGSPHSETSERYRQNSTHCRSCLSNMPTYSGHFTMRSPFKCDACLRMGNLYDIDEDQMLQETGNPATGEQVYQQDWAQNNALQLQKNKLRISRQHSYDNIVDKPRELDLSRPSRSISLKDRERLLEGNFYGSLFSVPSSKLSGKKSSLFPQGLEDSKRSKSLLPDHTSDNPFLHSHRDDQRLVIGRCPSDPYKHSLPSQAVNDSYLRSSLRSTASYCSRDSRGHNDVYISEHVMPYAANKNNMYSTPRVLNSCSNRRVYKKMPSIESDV
# Procedure: Activation of the NR2A or NR2B subtype of NMDA receptor with glutamate as an agonist and glycine co-agonist on these cells results in calcium influx, which can be monitored with fluorescent indicator Fluo-4.
# For experiments, the cells were seeded onto poly-D-lysine-coated 96-well black plates with clear bottom (Corning) at a density of ^˜50,000 cells/well. After overnight culture, the growth medium was removed from the wells and the cells were incubated at 37° C. for 60 min in Hanks buffer containing 4 μM fluo-4-AM (Invitrogen) and 0.1% bovine serum albumin (BSA). After dye-loading, the cells were washed three times with Hanks buffer and incubated for 10 min at room temperature with various concentrations of test compounds prepared in Hanks buffer with 0.1% BSA. The cell plates were placed onto FDSS μCell fluorescence reader (Hamamatsu). After 20 sec reading of background fluorescence, agonist glutamate at final 100 μM and co-agonist glycine at final 50 μM were added to the cells to activate the receptor, and the resulting fluorescence changes were recorded and quantified. Based on the changes in fluorescence intensity, the pharmacological effect of test compounds were analyzed and the IC50 values derived from a non-linear least squares fitting of the concentration-dependent response to a standard logistic equation using Prism (Graphpad, Inc): Amplitude=Max Amplitude/(1+(IC50/[antagonist])^n).
structure (smiles),measurement,setting,value
"Cc1ccc(COC(=O)N2CC[C@H](CNc3nccn4cnnc34)C(F)(F)C2)cc1 [Compound E1-1.2, (+)-R-4-methylbenzyl 4-(([1,2,4]triazolo[4,3-a]pyrazin-8-ylamino)methyl)-3,3-difluoropiperidine-1-carboxylate]",activity on electroconvulsive threshold,[1],robust anticonvulsant activity
same,number of CBF events vs vehicle,[2]; 10 mg/kg,decreased
same,number of DC potentials vs vehicle group,"[2]; 3 mpk, 10 mpk and 30 mpk",significantly decreased
same,magnitude of CBF vs vehicle,[2],unchanged
same,amplitude of DC potentials vs vehicle,[2]; various doses,not statistically different
same,duration of DC potentials vs vehicle,[2]; various doses,not statistically different
same,cumulative time spent on nociceptive behavior in phase I (0-5 mins),[3],decreased
same,cumulative time spent on nociceptive behavior in phase II (20-35 mins),[3],decreased
same,IC50,cloned human NR1/NR2A,> 10 µM
